Results on two compounds are retold here after patent US7052714B1, “Ophthalmic adhesive preparations for percutaneous adsorption” (Senju Pharmaceutical Co., LTD, priority 1999, dated 2006).

“And” between values parts separate entries of the source, which are not always exact repeats. Identical values can stand only once. Like-named read-outs stand apart in the source and are kept apart here.

Data set [1] in a line: In vivo test-1: transfer of drugs from transdermal patches to the plasma and ocular tissues.
Description: (§1) 0.5-ml blood sampling was performed over time through a sampling port of the cannula placed on the occipital region of the rat's head. For measurement of transfer of the drug to the ocular tissues, rats were euthanized with an excess amount of sodium pentobarbital solution and the ocular tissues were removed. The tissues were pretreated, extracted and measured to determine the concentration of the drug by HPLC.
(§2) Determination of the concentration of N-(4-fluorophenylsulfonyl)-L-valyl-L-leucinal in the samples was carried out by HPLC under the following conditions.
Data set [2] is described as follows: In vivo test-2: intravenous administration experiment. Details: species or system Wistar rats. The note with it: intravenous injection 2 mg/kg, rat, 15 minutes after injection. Here is the method: An intravenous administration experiment was carried out using 5 male Wistar rats (body weight approx. 600 g: 592±34 g) by administering 2 mg/kg SJA6017 through the tail vein of the animals under pentobarbital anesthesia. For the administration, a solution was used containing 10 mg SJA6017 dissolved in 10 ml mixture of ethanol/PEG400/water (1/2/1). Fifteen minutes after the intravenous administration, the animals were sacrificed, the blood was collected through the abdominal aorta, and the plasma separated. The eyes were excised at the same time. Each of the eyes was separated into the aqueous humor, the lens and the other tissues (consisting of the cornea, the sclera, the iris-ciliary body, the vitreous body and the retina-choroid), and corresponding tissues separated from the 10 eyes were combined, respectively, to make a sample.

Data set [3] in a line: In vivo test-2: SJA6017 transdermal patch, transfer to the plasma and ocular tissues. The arrangement: species or system Wistar/ST rats. To be noted: transdermal application, 12 hours after application. From the text: A study of SJA6017-containing transdermal patch according to the formula below was made for examining transfer of SJA6017 from the patch to the plasma and to the ocular tissues, and comparison of the results with those from intravenous injection was also made.
The hair was removed under anesthesia with a clipper and a shaver carefully to avoid injuring the skin. A SJA6017 transdermal patch having a drug-containing layer according to the above formula with the size of 5.0×6.0 cm (30 cm^2) was applied to the animals (n=10) of the percutaneous administration group on the abdominal skin and secured in position with a supporting tape to prevent it from falling. After 12 hours of application, the animals were sacrificed and the blood was collected from the abdominal aorta, and the plasma separated. The eyes were excised at the same time. Each of the eyes was separated into the aqueous humor, the lens and the other tissues (consisting of the cornea, the sclera, the iris-ciliary body, the vitreous body and the retina-choroid), and corresponding tissues separated from the 20 eyes were combined, respectively, to make a sample.

The nature of data set [4]: in vivo. The note with it: male, Wistar/ST, rat.
Description: as §1, §2
For data set [5] the following is noted: male, Wistar/ST, rat, in vivo.
Description: as §1, §2
[6] abbreviates: male, Wistar/ST, rat, plasma, other: transdermal patch applied on the abdominal skin, 10 cm^2.
The mark [7] stands for this setting: male, Wistar/ST, rat, plasma, other: transdermal patch applied on the abdominal skin, 10 cm^2 patch.

`CC(C)C[C@@H](C=O)NC(=O)[C@@H](NS(=O)(=O)c1ccc(F)cc1)C(C)C` [SJA6017, N-(4-fluorophenylsulfonyl)-L-valyl-L-leucinal]: the “time after application at which plasma concentration reached the peak” value in data set [1] (SJA6017 patch No. S4, 10 cm^2, rat) turned out to be 12 h. Besides, in data set [1] (SJA6017 patch No. S4, 10 cm^2, rat, 24 hours), the “plasma concentration 24 hours after application relative to its peak” value is on record as “about 85%”. Further, in data set [1] (setting [6]), the concentration at 8 h turned out to be 0.05 µg/mL, the concentration at 12 h amounted to 0.114 µg/mL, the concentration at 18 h was found to be 0.068 µg/mL and the concentration at 24 h was found to be 0.098 µg/mL. Besides, in data set [1] (setting [7]), the concentration at 0 h worked out at 0 µg/mL, the concentration at 2 h came to 0.03 µg/mL, the concentration at 4 h was determined as 0.036 µg/mL and the concentration at 6 h amounted to 0.058 µg/mL. In data set [2], the “Intraocular concentration, itemized: Aqueous humor” value was “not detected”; the “Intraocular concentration, itemized: Lens” value was “not detected”; the “Other ocular tissues: ratio to plasma concentration (100%)” value is given as “(27.8%)*^2”. In addition, the Eyeball/plasma ratio in data set [2] (2 mg/kg) is recorded as 13%. Further, the concentration at 15 min in data set [2] (male, Wistar, eye (ocular tissues), read-out: Intraocular concentration) was 16 ng/g. Also, the Kp at 15 min in data set [2] (male, Wistar, eyeball/plasma, read-out: Eyeball/plasma ratio) amounted to 0.13. Besides, the concentration at 15 min in data set [2] (male, Wistar, plasma, read-out: Plasma concentration) was found to be 0.12 ± 0.016 µg/mL. Moreover, the concentration at 15 min in data set [2] (male, Wistar, read-out: Intraocular concentration, itemized: Other ocular tissues (cornea, sclera, iris-ciliary body, vitreous body, retina-choroid)) was 33.4 ng/g. Besides, in data set [3] (male, Wistar/ST, eye (ocular tissues), other: transdermal patch applied on the abdominal skin, 30 cm^2 patch, 5 W/W% SJA6017 patch 30 cm^2, rat, read-out: Intraocular concentration), the concentration at 12 h came out at 7.2 ng/g. In data set [3] (male, Wistar/ST, lens, other: transdermal patch applied on the abdominal skin, 30 cm^2 patch, SJA6017 patch 30 cm^2, rat, read-out: Intraocular concentration, itemized: Lens), the concentration at 12 h came out at 1.1 ng/g. For the same compound, the concentration at 12 h in data set [3] (male, Wistar/ST, other: transdermal patch applied on the abdominal skin, 30 cm^2 patch, SJA6017 patch 30 cm^2, rat, read-out: Intraocular concentration, itemized: Other ocular tissues (cornea, sclera, iris-ciliary body, vitreous body, retina-choroid)) is 13.8 ng/g. Further, the concentration at 12 h in data set [3] (male, Wistar/ST, plasma, other: transdermal patch applied on the abdominal skin, 30 cm^2 patch, 5 W/W% SJA6017 patch 30 cm^2, rat, read-out: Plasma concentration) was found to be 0.047 ± 0.012 µg/mL. Moreover, in data set [3] (male, Wistar/ST, rat, eyeball/plasma, other: transdermal patch applied on the abdominal skin, 30 cm^2 patch, SJA6017 patch 30 cm^2, rat, read-out: Eyeball/plasma ratio), the Kp at 12 h was roughly 0.16. For the same compound, in data set [3] (SJA6017 patch 30 cm^2, rat), the “Intraocular concentration, itemized: Aqueous humor” value is “not detected”; the “Lens: ratio to plasma concentration (100%)” value was “(2.3%)*^2”; the “Other ocular tissues: ratio to plasma concentration (100%)” value was “(29.6%)*^2”.
`C[C@]12C=CC(=O)C=C1CC[C@@H]1[C@@H]2[C@@H](O)C[C@@]2(C)[C@H]1CC[C@]2(O)C(=O)CO` [Prednisolone, prednisolone]: in data set [4], the concentration at 0 h was found to be 0 µg/mL; the concentration at 2 h is 0.22 µg/mL; the concentration at 4 h was found to be 0.288 µg/mL; the concentration at 6 h was 70 ng/g and 385 ng/mL. Also, in data set [4], the concentration at 8 h worked out at 0.608 µg/mL, the concentration at 12 h amounted to 0.148 µg/mL, the concentration at 18 h is 0.099 µg/mL and the concentration at 24 h was determined as 0.077 µg/mL. Further, in data set [5], the “time after application at which plasma concentration reached the peak” value was 8 h.
